Results reported in US9155729B2, “Thiazolidinedione analogues” (Metabolic Solutions Development Company, LLC, priority 2006, dated 2015).
Marks after values point to notes of the source that are not given here.

Key:
[1] = target: T1, PPARγ (Homo sapiens, UniProt P37231); assay: Commercial PPARγ binding assay (Invitrogen, PPAR-LBD/Fluormone PPAR Green complex); conditions: for PPARγ binding signal (fluorescence polarization, Fluormone PPAR Green displacement): mean of three experiments; for Binding to PPARγ (in words): referring to FIG. 1 and Table B
T1 construct: purchased Invitrogen Corporation, Carlsbad, Calif
T1 sequence (P37231 238-503 limits assumed): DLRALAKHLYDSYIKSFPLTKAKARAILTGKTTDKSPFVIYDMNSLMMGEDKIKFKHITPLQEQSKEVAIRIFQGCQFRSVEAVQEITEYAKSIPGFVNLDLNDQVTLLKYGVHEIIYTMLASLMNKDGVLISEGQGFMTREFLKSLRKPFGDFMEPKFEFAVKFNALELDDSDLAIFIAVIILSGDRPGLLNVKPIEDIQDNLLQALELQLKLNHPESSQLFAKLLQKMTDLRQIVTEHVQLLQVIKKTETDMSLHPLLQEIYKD
Method: The ability of several exemplary compounds of the present invention, shown in Table A, to bind to PPARγ was measured using a commercial binding assay (Invitrogen Corporation, Carlsbad, Calif.) that measures the test compounds ability to bind with PPAR-LBD/Fluormone PPAR Green complex. These assays were performed on three occasions with each assay using four separate wells (quadruplicate) at each concentration of tested compound. The data are mean and SEM of the values obtained from the three experiments. […] Compounds were added at the concentrations shown, which range from 0.1-100 micromolar.

[2] = tested on: Diabetic KKAy mice; assay: Glucose, insulin and triglyceride in diabetic KKAy mice, 4 days oral dosing; format: in vivo; conditions: for Glucose / Insulin / Triglycerides: 93 mg/kg orally for 4 days, fasted, blood approx. 18 hours after last dose, mean and SEM; for Effectiveness at lowering glucose, insulin and triglyceride levels / antidiabetic activity (in words): Table C
Method: The insulin sensitizing and antidiabetic pharmacology are measured in the KKA^Y mice as previously reported [Hofmann, C., Lomez, K., and Colca, J. R. (1991). Glucose transport deficiency corrected by treatment with the oral anti-hyperglycemic agent Pioglitazone. Endocrinology, 129:1915-1925.]. Compounds are formulated in 1% sodium carboxy methylcellulose, and 0.01% tween 20 and dosed daily by oral gavage.
Compounds were formulated by suspension and orally dosed to KKAy mice at 93 mg/kg for 4 days. The compounds were first dissolved in DMSO and then placed into aqueous suspension containing 7-10% DMSO, 1% sodium methylcarboxycellulose, and 0.01% Tween 20. On the fifth day, the mice were fasted and blood samples were obtained approximately 18 hours after the last dose. The parameters were measured by standard assay methods. Data are mean and SEM N=6-12 mice.

SMILES | PPARγ binding signal (fluorescence polarization, Fluormone PPAR Green displacement) ([1]; 1 μM compound) | PPARγ binding signal (fluorescence polarization, Fluormone PPAR Green displacement) ([1]; 3 μM compound) | PPARγ binding signal (fluorescence polarization, Fluormone PPAR Green displacement) ([1]; 10 μM compound) | PPARγ binding signal (fluorescence polarization, Fluormone PPAR Green displacement) ([1]; 50 μM compound) | PPARγ binding signal (fluorescence polarization, Fluormone PPAR Green displacement) ([1]; 100 μM compound) | PPARγ binding signal (fluorescence polarization, Fluormone PPAR Green displacement) ([1]; .1 μM compound) | PPARγ binding signal (fluorescence polarization, Fluormone PPAR Green displacement) ([1]; .3 μM compound) | Binding to PPARγ (in words) [1] | Glucose ([2]; N=6-12, 93 mg/kg) | Insulin ([2]; N=6-12, 93 mg/kg) | Triglycerides ([2]; N=6-12, 93 mg/kg) | Effectiveness at lowering glucose, insulin and triglyceride levels / antidiabetic activity (in words) [2] | Glucose ([2]; N=6-12) | Insulin ([2]; N=6-12) | Triglycerides ([2]; N=6-12)
CCc1ccc([C@@H](O)COc2ccc(CC3SC(=O)NC3=O)cc2)nc1 (stereo partly drawn) [Compound 2] | 238 | 236 | 223 | 162 | 136 | 231 | 233 | particularly poor binders | – | – | – | equivalent antidiabetic activity | 428 +/− 17* mg/dl | 5.7 +/− 1.6* ng/ml | 187 +/− 29* mg/dl
CCc1ccc([C@H](O)COc2ccc(CC3SC(=O)NC3=O)cc2)nc1 (stereo partly drawn) [Compound 3] | 203 | 185 | 134 | 88 | 77 | 226 | 221 | – | – | – | – | equivalent antidiabetic activity | 388 +/− 38* mg/dl | 7.2 +/− 1.9* ng/ml | 148 +/− 23* mg/dl
CCc1ccc(C(O)COc2ccc(CC3(C)SC(=O)NC3=O)cc2)nc1 (stereo not drawn) [Compound 5] | 228 | 226 | 212 | 132 | 106 | 235 | 230 | – | – | – | – | – | – | – | –
CCc1ccc([C@H](O)COc2ccc(CC3(C)SC(=O)NC3=O)cc2)nc1 (stereo partly drawn) [Compound 9] | 239 | 233 | 234 | 189 | 164 | 237 | 237 | – | – | – | – | – | 740 ± 37 mg/dL | 14.8 ± 2.5 ng/mL | 354 ± 43 mg/dL
CCc1ccc(C(COc2ccc(CC3SC(=O)NC3=O)cc2)CC(=O)OC)nc1 (stereo not drawn) [Compound 12] | 198 | 155 | 112 | 80 | 85 | 243 | 222 | – | – | – | – | – | – | – | –
CCc1ccc(C(=CCO)COc2ccc(CC3SC(=O)NC3=O)cc2)nc1 (stereo not drawn) [Compound 13] | 229 | 230 | 204 | 148 | 108 | 244 | 243 | – | – | – | – | – | – | – | –

Continued, in another order:

PPARγ binding signal (fluorescence polarization, Fluormone PPAR Green displacement) ([1]; 1 μM compound) | PPARγ binding signal (fluorescence polarization, Fluormone PPAR Green displacement) ([1]; 3 μM compound) | PPARγ binding signal (fluorescence polarization, Fluormone PPAR Green displacement) ([1]; 10 μM compound) | PPARγ binding signal (fluorescence polarization, Fluormone PPAR Green displacement) ([1]; 50 μM compound) | PPARγ binding signal (fluorescence polarization, Fluormone PPAR Green displacement) ([1]; 100 μM compound) | PPARγ binding signal (fluorescence polarization, Fluormone PPAR Green displacement) ([1]; .1 μM compound) | PPARγ binding signal (fluorescence polarization, Fluormone PPAR Green displacement) ([1]; .3 μM compound) | Binding to PPARγ (in words) [1] | SMILES | Glucose ([2]; N=6-12, 93 mg/kg) | Insulin ([2]; N=6-12, 93 mg/kg) | Triglycerides ([2]; N=6-12, 93 mg/kg) | Effectiveness at lowering glucose, insulin and triglyceride levels / antidiabetic activity (in words) [2] | Glucose ([2]; N=6-12) | Insulin ([2]; N=6-12) | Triglycerides ([2]; N=6-12)
234 | 224 | 200 | 122 | 91 | 236 | 230 | – | CCc1ccc(CCOc2ccc(CC3(C)SC(=O)NC3=O)cc2)nc1 (single isomer, unassigned) [Compound 4] | – | – | – | – | – | – | –
233 | 223 | 198 | 126 | 99 | 246 | 246 | better PPARγ binding compounds | CCc1ccc(CCOc2ccc(CC3(C)SC(=O)NC3=O)cc2)nc1 (single isomer, unassigned) [Compound 6] | 694 ± 63 mg/dL | 11.1 ± 1.6 ng/mL | 298 ± 49 mg/dL | not as effective as compounds 1 and 2 | – | – | –
248 | 237 | 210 | 144 | 105 | 249 | 246 | better PPARγ binding compounds | CCc1ccc(CCOc2ccc(CC3(C)SC(=O)NC3=O)cc2)nc1 (single isomer, unassigned) [Compound 7] | 631 ± 7 mg/dL | 16.3 ± 1.2 ng/mL | 374 ± 15 mg/dL | not as effective as compounds 1 and 2 | – | – | –
239 | 241 | 233 | 199 | 186 | 237 | 243 | – | CCc1ccc([C@@H](O)COc2ccc(CC3(C)SC(=O)NC3=O)cc2)nc1 (stereo partly drawn) [Compound 8] | – | – | – | – | 756 ± 31 mg/dL | 12.8 ± 2.6 ng/mL | 465 ± 64 mg/dL
240 | 234 | 219 | 126 | 93 | 245 | 239 | – | CCc1ccc(C(=O)COc2ccc(CC3(C)SC(=O)NC3=O)cc2)nc1 (stereo not drawn) [Compound 10] | – | – | – | – | – | – | –
